{"source": "patent US10583154B2", "about": "“Multi-dose compositions containing an antimicrobial polyamide or octenidine preservative” (priority 2016, dated 2020)", "conditions": "in vivo, iv"}
{"substance": "4,4′-trimethylene dipiperidine bispropanoic acid-co-1,3-diamino propane", "values": [{"measurement": "maximum tolerated dose", "value": "~40", "unit": "mg/kg"}]}
